US20070207975A1, “Materials and methods for treating and preventing Her-2/neu overexpressing, FAS-elevated cancer cells” (EVANSTON NORTHWESTERN HEALTHCARE, priority 2006, published 2007)

Legend:
[1] = system: Lipogenic Cells; experiment: Effect of fatty acids, lipogenic cells (Table 2); type: cell-based
[2] = system: Breast Cancer Cells; experiment: Effect of fatty acids, breast cancer cells (Table 2); type: cell-based; settings: FAS named only for oleic acid
[3] = system: p185^Her-2/neu; experiment: Flow cytometric analysis of cell surface-associated p185Her-2/neu; type: cell-based, human; settings: scavenger of reactive oxygen species added to OA treatment
Description: FIG. 1. […] FIG. 2. […] The amount of cell surface-associated p185^Her-2/neu was quantified by flow cytometric analyses using a specific antibody against the extracellular domain of p185^Her-2/neu (Ab-5), as described herein. The mean fluorescence signal±SD (n=3) was quantified using the geo mean fluorescence (GM) parameter provided with the Cell Quest Software (Becton Dickinson). […] After labeling, cells were washed thoroughly, and localization of p185^Her-2/neu was detected by indirect immunofluorescence by incubating with FITC-conjugated anti-mouse IgG. After counterstaining with DAPI, cells were examined and photographed using a Zeiss fluorescent microscope equipped with a built-in camera. […] Before experiments, cells were serum-starved overnight and then cultured in IMEM containing 0.1% FBS in the absence or presence of GLA (Sigma Chemical Co., St. Louis, Mo.). GLA was prepared at a concentration of 1 mg/mL in ethanol and was added to a final concentration of 0, 5, 10, or 20 μg/mL; an equal volume of ethanol was added to control cells. […] A) Cell surface expression of Her-2/neu protein in BT-474 and SK-Br3 cells was determined by flow cytometry using a mouse anti-Her-2/neu antibody directed against the extracellular domain of the p185^Her-2/neu oncoprotein (clone Ab-5; Oncogene Research Products; San Diego, Calif.). Briefly, after GLA or control treatment, cells were washed, harvested, resuspended in phosphate-buffered saline (PBS) containing 1% FBS, and incubated with 5 μg/mL Ab-5 antibody for 1 hour at 4° C. The cells were washed again and then incubated with a fluorescein isothiocyanate (FITC)-conjugated anti-mouse IgG secondary antibody (Jackson ImnunoResearch Laboratories, West Grove, Pa.) diluted 1:200 in cold PBS containing 1% FBS for 45 minutes at 4° C. The cells were washed once more in cold PBS, and flow cytometric analysis was performed with a FACScalibur flow cytometer (Becton Dickinson, San Diego, Calif.) equipped with Cell Quest Software (Becton Dickinson). […] As a control for nonspecific immunofluorescence, cells were stained with the secondary antibody alone (solid black line). The mean fluorescence signal associated with cells for labeled p185^Her-2/neu was quantified using the Geo Mean (GM) fluorescence parameter provided with the software. […] B) Immunoblot analysis of Her-2/neu and PEA3 proteins in control- and GLA-treated BT-474 and SK-Br3 cells. […] Immunoreactive bands were detected by enhanced chemiluminescence reagent (Pierce, Rockford, Ill.). Blots were reprobed with an anti-β-actin goat polyclonal antibody (Santa Cruz Biotechnology) to control for protein loading and transfer. Densitometric values of protein bands were quantified using Scion Imaging Software (Scion Corp., Frederick, Md.).

Row | SMILES | Effect of Fatty Acids: Lipogenic Cells [1] | Effect of Fatty Acids: Breast Cancer Cells [2] | prevention of OA-induced suppression of Her-2/neu overexpression [3]
1 | CCC=CCC=CCC=CCC=CCC=CCCCC(=O)O [ω-3 Eicosapentaenoic acid, 5,8,11,14,17-eicosapentaenoic acid, reference compound] | Down-regulator | No effect | –
2 | Cc1c(C)c2c(c(C)c1O)CCC(C)(CCCC(C)CCCC(C)CCCC(C)C)O2 (racemic) [vitamin E, dl-α-tocopherol, reference compound] | – | – | not significantly prevented
3 | CCC=CCC=CCC=CCC=CCC=CCC=CCCC(=O)O [ω-3 Docosahexaenoic acid, 4,7,10,13,16,19-docosahexaenoic acid, reference compound] | No effect | Weak Down-regulator | –
4 | CCC=CCC=CCC=CCCCCCCCC(=O)O [ω-3 Alpha-Linolenic acid, 9,12,15-octadecatrienoic acid] | No effect | Potent Down-regulator | –
5 | CCCCCC=CCC=CCCCCCCCC(=O)O [ω-6 Linoleic acid, 9,12-octadecadienoic acid, reference compound] | Potent | No effect | –
